Experimental data as given in publication PMC2751792 (Journal of the American Chemical Society, 2009).
Square brackets hold non-standard residues; d marks the D form. Peptide text beside a SMILES is read from it. * marks the point of attachment. Asu = N[C@@H](CCCCCC(=O)O)C(=O)O; β3hL = CC(C)C[C@H](N)CC(=O)O; NHOH = ON*

Experiments:
recombinant human HDAC7 = target: T1, recombinant human HDAC7 (Homo sapiens, UniProt Q8WUI4); experiment: Recombinant HDAC isoform inhibition, HDAC7; assay type: biochemical
T1 sequence (Q8WUI4 1-952): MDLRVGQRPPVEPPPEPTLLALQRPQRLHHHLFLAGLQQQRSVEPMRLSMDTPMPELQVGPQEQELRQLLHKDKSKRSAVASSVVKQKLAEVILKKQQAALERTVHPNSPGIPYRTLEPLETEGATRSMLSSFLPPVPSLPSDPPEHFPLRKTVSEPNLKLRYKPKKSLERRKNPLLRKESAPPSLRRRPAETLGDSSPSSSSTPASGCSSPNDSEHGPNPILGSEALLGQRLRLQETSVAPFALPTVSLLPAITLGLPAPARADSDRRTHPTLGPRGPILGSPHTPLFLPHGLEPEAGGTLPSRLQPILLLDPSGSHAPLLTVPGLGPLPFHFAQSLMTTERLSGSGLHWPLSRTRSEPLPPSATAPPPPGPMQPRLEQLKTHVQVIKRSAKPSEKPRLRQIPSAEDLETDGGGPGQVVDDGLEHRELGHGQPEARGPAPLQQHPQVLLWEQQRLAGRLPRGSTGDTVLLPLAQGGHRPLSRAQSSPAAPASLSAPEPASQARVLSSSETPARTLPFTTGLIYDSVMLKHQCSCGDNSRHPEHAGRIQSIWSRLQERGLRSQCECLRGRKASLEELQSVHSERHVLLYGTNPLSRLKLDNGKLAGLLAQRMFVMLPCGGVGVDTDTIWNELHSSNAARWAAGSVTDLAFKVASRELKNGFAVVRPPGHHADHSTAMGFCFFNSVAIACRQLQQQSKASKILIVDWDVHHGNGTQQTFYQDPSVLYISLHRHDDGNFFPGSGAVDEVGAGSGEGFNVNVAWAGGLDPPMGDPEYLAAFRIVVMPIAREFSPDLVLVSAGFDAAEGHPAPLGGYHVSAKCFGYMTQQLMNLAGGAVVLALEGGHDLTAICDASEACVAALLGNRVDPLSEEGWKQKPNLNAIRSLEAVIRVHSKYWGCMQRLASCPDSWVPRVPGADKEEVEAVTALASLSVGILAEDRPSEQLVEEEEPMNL

recombinant human HDAC4 = recombinant human HDAC4 (Homo sapiens, UniProt P56524); experiment: Recombinant HDAC isoform inhibition, HDAC4; assay type: biochemical
recombinant human HDAC9 = recombinant human HDAC9 (Homo sapiens, UniProt Q9UKV0); experiment: Recombinant HDAC isoform inhibition, HDAC9; assay type: biochemical
recombinant human HDAC5 = recombinant human HDAC5 (Homo sapiens, UniProt Q9UQL6); experiment: Recombinant HDAC isoform inhibition, HDAC5; assay type: biochemical
recombinant human HDAC10 = target: T2, recombinant human HDAC10 (Homo sapiens, UniProt Q969S8); experiment: Recombinant HDAC isoform inhibition, HDAC10; assay type: biochemical
T2 sequence (Q969S8 1-669): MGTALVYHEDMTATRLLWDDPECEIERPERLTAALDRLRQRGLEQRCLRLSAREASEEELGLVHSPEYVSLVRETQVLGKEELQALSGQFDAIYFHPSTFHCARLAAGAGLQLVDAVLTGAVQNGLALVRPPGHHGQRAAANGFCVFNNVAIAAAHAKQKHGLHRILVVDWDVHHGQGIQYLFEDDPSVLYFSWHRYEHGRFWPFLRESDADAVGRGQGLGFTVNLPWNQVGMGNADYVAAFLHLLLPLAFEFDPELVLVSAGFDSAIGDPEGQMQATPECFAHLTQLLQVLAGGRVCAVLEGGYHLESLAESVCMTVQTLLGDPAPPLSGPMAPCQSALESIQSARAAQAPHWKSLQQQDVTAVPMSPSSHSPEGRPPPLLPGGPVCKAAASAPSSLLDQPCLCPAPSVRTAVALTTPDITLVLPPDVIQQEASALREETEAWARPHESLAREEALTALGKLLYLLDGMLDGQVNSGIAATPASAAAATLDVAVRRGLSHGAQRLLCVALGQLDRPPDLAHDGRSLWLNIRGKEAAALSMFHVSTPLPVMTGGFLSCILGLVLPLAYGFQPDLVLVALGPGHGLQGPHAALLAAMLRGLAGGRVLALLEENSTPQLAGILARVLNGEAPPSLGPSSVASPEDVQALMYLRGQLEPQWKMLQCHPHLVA

recombinant human HDAC6 = target: T3, recombinant human HDAC6 (Homo sapiens, UniProt Q9UBN7); experiment: Recombinant HDAC isoform inhibition, HDAC6; assay type: biochemical
T3 sequence (Q9UBN7 1-1215): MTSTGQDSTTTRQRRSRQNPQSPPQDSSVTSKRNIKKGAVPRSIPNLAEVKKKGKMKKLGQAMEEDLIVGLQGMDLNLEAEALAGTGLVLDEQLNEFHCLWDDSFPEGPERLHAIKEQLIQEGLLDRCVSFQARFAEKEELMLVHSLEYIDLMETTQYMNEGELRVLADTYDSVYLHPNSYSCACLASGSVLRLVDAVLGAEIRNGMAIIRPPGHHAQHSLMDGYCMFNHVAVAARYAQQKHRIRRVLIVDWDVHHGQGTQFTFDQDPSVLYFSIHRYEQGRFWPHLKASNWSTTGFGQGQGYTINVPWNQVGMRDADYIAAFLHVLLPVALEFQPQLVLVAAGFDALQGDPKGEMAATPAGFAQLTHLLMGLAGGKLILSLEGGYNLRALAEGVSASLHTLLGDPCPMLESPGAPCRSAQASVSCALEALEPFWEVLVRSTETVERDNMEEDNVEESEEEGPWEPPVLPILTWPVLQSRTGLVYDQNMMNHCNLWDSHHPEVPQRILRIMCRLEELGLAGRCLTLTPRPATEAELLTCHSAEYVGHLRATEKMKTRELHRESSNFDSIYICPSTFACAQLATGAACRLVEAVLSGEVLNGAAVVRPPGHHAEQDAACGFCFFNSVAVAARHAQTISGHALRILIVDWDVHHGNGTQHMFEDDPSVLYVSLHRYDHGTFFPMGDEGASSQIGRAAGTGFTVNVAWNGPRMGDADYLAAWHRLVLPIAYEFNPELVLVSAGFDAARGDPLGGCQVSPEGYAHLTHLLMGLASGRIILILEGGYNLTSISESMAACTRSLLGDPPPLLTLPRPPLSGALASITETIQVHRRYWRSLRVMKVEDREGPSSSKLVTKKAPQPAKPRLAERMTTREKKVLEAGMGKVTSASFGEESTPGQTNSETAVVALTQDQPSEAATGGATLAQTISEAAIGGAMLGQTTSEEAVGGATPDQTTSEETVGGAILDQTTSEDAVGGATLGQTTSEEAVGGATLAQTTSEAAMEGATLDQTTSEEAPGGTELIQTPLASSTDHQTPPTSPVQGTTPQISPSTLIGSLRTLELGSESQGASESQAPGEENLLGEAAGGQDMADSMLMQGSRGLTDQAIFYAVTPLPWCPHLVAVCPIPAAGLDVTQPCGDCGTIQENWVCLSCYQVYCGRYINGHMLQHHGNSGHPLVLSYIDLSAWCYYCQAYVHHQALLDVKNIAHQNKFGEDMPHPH

recombinant human HDAC3 = recombinant human HDAC3 (Homo sapiens, UniProt O15379); experiment: Recombinant HDAC isoform inhibition, HDAC3; assay type: biochemical
[1] = tested on: HDAC activity in HeLa cell nuclear extract; experiment: Inhibition of HDAC activity in HeLa cell nuclear extract; assay type: biochemical, human; conditions: for IC50: read-out: HDAC inhibition, IC50, HeLa, at least in duplicate; for HDAC inhibitory activity in HeLa cell nuclear extract, result in words: numbers only in Figures 2-4 (not readable)
recombinant human HDAC1 = recombinant human HDAC1 (Homo sapiens, UniProt Q13547); experiment: Recombinant HDAC isoform inhibition, HDAC1; assay type: biochemical
recombinant human HDAC2 = recombinant human HDAC2 (Homo sapiens, UniProt Q92769); experiment: Recombinant HDAC isoform inhibition, HDAC2; assay type: biochemical
Chain of recombinant human HDAC2 (Q92769 whole entry, canonical isoform): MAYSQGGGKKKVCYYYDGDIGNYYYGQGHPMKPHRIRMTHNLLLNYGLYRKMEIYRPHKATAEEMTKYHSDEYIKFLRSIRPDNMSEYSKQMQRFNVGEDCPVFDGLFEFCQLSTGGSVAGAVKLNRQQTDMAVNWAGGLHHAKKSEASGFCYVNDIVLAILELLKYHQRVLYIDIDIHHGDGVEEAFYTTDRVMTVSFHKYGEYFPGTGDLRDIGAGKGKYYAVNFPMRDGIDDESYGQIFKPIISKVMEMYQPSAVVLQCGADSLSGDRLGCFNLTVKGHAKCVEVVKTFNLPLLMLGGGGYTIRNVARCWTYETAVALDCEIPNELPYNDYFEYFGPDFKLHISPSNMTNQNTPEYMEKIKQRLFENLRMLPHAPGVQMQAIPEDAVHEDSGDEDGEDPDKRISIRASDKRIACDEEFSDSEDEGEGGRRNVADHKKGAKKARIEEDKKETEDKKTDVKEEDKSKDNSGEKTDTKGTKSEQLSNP

Chain of recombinant human HDAC4 (P56524 whole entry, canonical isoform): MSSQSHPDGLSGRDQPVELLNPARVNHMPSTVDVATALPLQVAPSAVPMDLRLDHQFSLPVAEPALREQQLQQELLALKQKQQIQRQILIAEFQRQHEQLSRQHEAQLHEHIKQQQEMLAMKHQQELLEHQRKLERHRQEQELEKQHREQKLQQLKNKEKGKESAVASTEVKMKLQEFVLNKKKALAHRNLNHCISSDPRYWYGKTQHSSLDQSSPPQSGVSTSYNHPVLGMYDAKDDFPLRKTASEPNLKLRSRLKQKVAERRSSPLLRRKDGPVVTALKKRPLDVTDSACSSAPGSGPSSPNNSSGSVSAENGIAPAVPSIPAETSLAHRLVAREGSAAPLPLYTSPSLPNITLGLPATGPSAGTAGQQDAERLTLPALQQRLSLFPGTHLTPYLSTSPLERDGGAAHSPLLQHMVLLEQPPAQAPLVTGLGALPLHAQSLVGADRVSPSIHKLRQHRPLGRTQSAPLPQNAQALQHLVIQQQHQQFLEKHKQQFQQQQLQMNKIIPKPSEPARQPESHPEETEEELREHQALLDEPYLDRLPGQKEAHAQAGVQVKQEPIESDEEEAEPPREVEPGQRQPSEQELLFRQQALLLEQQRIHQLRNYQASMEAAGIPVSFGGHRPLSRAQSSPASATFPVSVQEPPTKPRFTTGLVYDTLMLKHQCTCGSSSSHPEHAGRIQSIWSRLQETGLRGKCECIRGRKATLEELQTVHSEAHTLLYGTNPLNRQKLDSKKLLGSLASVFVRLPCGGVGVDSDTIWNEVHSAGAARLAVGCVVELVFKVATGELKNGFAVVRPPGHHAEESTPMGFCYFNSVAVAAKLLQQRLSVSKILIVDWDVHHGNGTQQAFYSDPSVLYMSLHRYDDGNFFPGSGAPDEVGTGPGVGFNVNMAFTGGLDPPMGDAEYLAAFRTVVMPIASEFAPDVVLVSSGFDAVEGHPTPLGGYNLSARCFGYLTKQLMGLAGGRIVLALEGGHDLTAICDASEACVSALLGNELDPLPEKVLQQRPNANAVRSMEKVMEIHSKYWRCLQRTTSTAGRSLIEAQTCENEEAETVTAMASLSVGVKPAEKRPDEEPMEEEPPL
Chain of recombinant human HDAC9 (Q9UKV0 whole entry, canonical isoform): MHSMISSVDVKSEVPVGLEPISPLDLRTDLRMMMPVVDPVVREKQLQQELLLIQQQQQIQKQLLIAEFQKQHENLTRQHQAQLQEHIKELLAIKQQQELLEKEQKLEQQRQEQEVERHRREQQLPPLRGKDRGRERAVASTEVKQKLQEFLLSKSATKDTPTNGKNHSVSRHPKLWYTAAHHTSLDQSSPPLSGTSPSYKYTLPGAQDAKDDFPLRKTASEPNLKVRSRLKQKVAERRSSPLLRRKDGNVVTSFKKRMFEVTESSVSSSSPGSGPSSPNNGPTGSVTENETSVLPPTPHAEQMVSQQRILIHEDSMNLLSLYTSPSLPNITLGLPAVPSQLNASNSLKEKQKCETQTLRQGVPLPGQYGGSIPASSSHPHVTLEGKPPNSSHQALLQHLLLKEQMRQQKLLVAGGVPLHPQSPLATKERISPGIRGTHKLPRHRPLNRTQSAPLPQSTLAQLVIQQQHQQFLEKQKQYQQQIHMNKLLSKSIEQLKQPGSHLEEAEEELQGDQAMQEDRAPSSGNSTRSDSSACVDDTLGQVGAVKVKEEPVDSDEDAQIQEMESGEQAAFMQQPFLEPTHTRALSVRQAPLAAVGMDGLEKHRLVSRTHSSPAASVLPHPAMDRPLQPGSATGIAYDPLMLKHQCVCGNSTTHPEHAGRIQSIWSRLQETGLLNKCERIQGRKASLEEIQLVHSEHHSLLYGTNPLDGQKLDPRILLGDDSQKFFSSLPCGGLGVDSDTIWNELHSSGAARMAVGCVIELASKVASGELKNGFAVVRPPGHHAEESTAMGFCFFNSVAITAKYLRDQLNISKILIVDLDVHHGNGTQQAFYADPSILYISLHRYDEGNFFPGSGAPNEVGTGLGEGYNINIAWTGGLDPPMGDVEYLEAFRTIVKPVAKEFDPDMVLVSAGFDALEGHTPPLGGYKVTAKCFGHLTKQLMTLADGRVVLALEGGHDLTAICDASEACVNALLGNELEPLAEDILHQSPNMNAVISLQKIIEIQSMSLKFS
Chain of recombinant human HDAC5 (Q9UQL6 whole entry, canonical isoform): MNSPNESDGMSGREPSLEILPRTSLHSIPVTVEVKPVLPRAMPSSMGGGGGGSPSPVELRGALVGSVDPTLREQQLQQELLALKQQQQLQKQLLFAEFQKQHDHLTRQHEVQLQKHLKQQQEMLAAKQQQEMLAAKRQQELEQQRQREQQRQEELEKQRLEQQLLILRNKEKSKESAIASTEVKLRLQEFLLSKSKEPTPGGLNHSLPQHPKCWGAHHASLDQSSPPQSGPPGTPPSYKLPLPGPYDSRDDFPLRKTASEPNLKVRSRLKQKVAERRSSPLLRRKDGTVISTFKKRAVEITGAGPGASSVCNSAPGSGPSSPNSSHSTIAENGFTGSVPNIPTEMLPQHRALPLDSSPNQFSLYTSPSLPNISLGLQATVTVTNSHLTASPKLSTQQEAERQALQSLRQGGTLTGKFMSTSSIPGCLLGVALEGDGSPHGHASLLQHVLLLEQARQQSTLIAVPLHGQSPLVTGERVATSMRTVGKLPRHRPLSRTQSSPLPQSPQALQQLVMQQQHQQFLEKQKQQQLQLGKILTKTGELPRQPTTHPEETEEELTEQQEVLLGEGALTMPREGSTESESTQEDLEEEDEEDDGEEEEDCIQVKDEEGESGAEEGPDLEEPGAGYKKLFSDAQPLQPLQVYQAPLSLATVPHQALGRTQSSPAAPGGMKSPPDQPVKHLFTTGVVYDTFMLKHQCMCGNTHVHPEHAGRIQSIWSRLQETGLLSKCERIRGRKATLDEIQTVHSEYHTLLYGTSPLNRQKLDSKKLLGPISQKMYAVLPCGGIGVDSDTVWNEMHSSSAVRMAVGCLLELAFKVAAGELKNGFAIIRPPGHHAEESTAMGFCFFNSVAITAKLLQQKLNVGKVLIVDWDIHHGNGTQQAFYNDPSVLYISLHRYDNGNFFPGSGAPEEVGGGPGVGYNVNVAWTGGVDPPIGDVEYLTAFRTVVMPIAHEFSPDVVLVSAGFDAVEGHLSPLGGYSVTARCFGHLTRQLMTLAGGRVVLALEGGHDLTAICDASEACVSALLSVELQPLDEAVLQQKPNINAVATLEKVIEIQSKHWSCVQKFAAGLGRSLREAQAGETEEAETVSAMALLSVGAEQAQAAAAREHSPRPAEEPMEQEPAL
Chain of recombinant human HDAC1 (Q13547 whole entry, canonical isoform): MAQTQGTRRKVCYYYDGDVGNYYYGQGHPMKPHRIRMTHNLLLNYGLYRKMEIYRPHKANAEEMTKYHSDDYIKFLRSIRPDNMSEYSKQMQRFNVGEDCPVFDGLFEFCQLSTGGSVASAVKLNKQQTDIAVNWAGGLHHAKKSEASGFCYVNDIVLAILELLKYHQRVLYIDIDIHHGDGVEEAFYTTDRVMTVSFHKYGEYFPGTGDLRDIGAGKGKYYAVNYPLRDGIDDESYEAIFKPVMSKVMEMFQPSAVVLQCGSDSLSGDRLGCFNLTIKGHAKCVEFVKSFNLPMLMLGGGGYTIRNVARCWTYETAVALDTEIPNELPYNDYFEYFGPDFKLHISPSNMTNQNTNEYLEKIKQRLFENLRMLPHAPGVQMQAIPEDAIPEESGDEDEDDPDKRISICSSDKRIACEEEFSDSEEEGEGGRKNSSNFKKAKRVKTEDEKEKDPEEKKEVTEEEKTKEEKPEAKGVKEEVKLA
Chain of recombinant human HDAC3 (O15379 whole entry, canonical isoform): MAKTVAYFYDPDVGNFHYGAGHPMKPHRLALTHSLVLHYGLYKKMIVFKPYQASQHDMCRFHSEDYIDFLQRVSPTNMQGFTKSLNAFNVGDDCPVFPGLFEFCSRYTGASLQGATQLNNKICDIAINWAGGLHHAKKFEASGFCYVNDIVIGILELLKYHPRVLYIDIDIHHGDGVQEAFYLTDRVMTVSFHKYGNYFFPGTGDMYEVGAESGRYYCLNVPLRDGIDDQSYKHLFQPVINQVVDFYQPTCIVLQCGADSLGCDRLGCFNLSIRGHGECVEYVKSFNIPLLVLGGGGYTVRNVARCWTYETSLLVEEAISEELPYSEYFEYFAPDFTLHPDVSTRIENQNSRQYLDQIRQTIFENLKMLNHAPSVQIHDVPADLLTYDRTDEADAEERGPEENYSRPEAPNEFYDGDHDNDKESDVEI
Chain of recombinant human HDAC3 (Q9Y618 395-489 partner limits assumed): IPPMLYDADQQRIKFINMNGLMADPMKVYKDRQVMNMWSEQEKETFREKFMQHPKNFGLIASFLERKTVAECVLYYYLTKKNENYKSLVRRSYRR

Compound	IC50 (recombinant human HDAC7)	IC50 (recombinant human HDAC4)	IC50 (recombinant human HDAC9)	IC50 (recombinant human HDAC5)	IC50 (recombinant human HDAC10)	IC50 (recombinant human HDAC6)	IC50 (recombinant human HDAC3)	Increase of potency relative to the parent ethylketones 3 and 4 [1]	IC50 [1]	IC50 (recombinant human HDAC1)	IC50 (recombinant human HDAC2)	HDAC inhibitory activity in HeLa cell nuclear extract, result in words [1]
CC(C)C[C@H]1CC(=O)N[C@@H](C)C(=O)N[C@@H](CCCCCC(=O)NO)C(=O)N[C@@H](Cc2c[nH]c3ccccc23)C(=O)N1 [3a] (cyclo([Asu](NHOH)W[β3hL]A))	> 10000 nM	> 10000 nM	0.6 nM	2.5 nM	0.2 nM							
CC(C)C[C@H]1CC(=O)N2CCC[C@H]2C(=O)N[C@@H](CCCCCC(=O)NO)C(=O)N[C@@H](Cc2c[nH]c3ccccc23)C(=O)N1 [4a] (cyclo([Asu](NHOH)W[β3hL]P))	> 10000 nM	> 10000 nM				35 nM	35 nM	at least 10 fold	< 1 nM	0.6 nM		
CCC(=O)CCCCC[C@@H]1NC(=O)[C@H](C)NC(=O)C[C@H](CC(C)C)NC(=O)[C@H](Cc2c[nH]c3ccccc23)NC1=O [compound 3]	> 10000 nM	> 10000 nM	30 nM	70 nM	20 nM				19 nM	35 nM	30 nM	
CCC(=O)CCCCC[C@@H]1NC(=O)C[C@H](C)NC(=O)C[C@H](CC(C)C)NC(=O)[C@H](Cc2c[nH]c3ccccc23)NC1=O [compound 5]												high nanomolar activity
CCC(=O)CCCCC[C@@H]1NC(=O)[C@@H]2CCCN2C(=O)C[C@H](CC(C)C)NC(=O)[C@H](Cc2c[nH]c3ccccc23)NC1=O [compound 4]	> 10000 nM	> 10000 nM	22 nM	50 nM					9 nM			low nanomolar IC50 values comparable to that of apicidin
CCC(=O)CCCCC[C@@H]1NC(=O)[C@H](C)N(C)C(=O)C[C@H](CC(C)C)NC(=O)[C@H](Cc2c[nH]c3ccccc23)NC1=O [3h]	> 10000 nM	> 10000 nM	25 nM	60 nM	28 nM	> 10000 nM						modest loss of potency
CC(C)C[C@H]1CC(=O)N[C@@H](C)C(=O)N[C@@H](CCCCCC(=O)O)C(=O)N[C@@H](Cc2c[nH]c3ccccc23)C(=O)N1 [3b] (cyclo([Asu]W[β3hL]A))	> 10000 nM	> 10000 nM	550 nM	700 nM	280 nM							significantly decreased potency
